Here are results for one compound from patent publication US10143668B2, “Hydroxy-substituted amino and ammonium derivatives and their medical use” (GRI BIO, INC., priority 2011, dated 2018).

One data set has as its system DTH response in mice. The data set is classed as in vivo. The settings on record: for Inhibition of mouse ear swelling: 24 h after challenge. On the procedure: The anti-inflammatory and anti-allergic effects of compound 1a was assessed in a mouse model of skin delayed-type hypersensitivity (DTH) reactions and compared to a vehicle control and to the reference drug, dexamethasone. DTH reactions are antigen-specific cell-mediated immune responses, driven primarily by T helper type 1 (Th1) cells, similar to the tuberculin immunization response. The immune reaction induced by an ovalbumin challenge to animals previously sensitized with ovalbumin in Complete Freund's Adjuvant, is characterized by swelling (edema) at the site of challenge, e.g. the mouse ear. Dexamethasone, an anti-inflammatory steroid, reduces cell-mediated immune responses and was employed to validate the responsiveness of the assay to pharmacological treatment.
Female BALB/cJW mice were bred at the University of Lodz, Lodz, Poland and housed in groups of 8 in makrolon cages with a 12 h light-dark cycle. Mice were given free access to food (Agropol S. j., Motycz, Poland) and water.
Sensitization: The protein antigen, ovalbumin, was reconstituted in PBS at 4 mg/ml. An ovalbumin-CFA emulsion was prepared by mixing the protein solution with the CFA suspension at a ratio of 1:1, using two Luer-lock syringes. The emulsion was tested by putting a drop of emulsion onto PBS; if the emulsion remained as a tight droplet on the PBS, the emulsion was deemed ready. Mice were sensitized by subcutaneously injecting 25 μL of emulsion into each side of the tail (100 μg ovalbumin per mouse).
Challenge: On the sixth day after sensitization, DTH was elicited by challenging animals subcutaneously (gauge 30 needle, B. Braun Melsungen, Melsungen, Germany) in the left ears with 10 μL of a 1% suspension of heat-aggregated ovalbumin (HOVA) (100 μg ovalbumin per mouse). The right ears were administered subcutaneously with PBS and served to determine the individual differences in ear thicknesses. HOVA was prepared by heating a 5% solution of ovalbumin in saline for 1 h at 80° C. with occasional swirling. After cooling to room temperature and centrifugation (400 g, 10 min at 4° C.), the pellet was washed twice with saline, resuspended at 2% in PBS and aliquots stored at −30° C. Before injection, HOVA was diluted with an equal volume of PBS and sonicated. Ear thickness was measured with a precise spring-loaded caliper (Art. No. 7309, Mitutoyo, Kawasaki, Japan) before challenge, and 24 h after challenge.
Sensitization, challenge and ear thickness measurement were performed under anesthesia (ketamine 80 mg/kg plus xylazine 8 mg/kg, intraperitoneally).
The anti-inflammatory effects of compound 1a were compared to a vehicle control (0.5% methyl cellulose solution) and to the reference drug, dexamethasone. Test compound was given at 25 or 100 mg/kg orally by gavage (Art. No. 432093, Harvard Apparatus GmbH, March-Hugstetten, Germany) 16 h and 3 h before sensitization and then twice daily with the final dose given 3 h prior to ear challenge (a total of 14 administrations). Dexamethasone was given at 0.1 or 1 mg/kg orally by gavage 3 h before sensitization and once daily with the final dose given 3 h prior to antigen challenge (a total of 7 administrations). All administrations were given in a volume of 10 mL/kg.
To account for individual variability, the increase in right ear thickness, before and 24 h after administration of PBS, was subtracted from the HOVA-induced increase in left ear thickness. […]
Mean and standard deviation (SD) were calculated from individual ear edema values. […]

Data set [1] has as its system allergic contact dermatitis response in mice. As to the kind of experiment: Allergic contact dermatitis (TDI) model in mice, mouse ear swelling test. The data set is classed as in vivo. On the procedure:
The anti-inflammatory and anti-allergic effects of compound 1a were assessed in a mouse model of allergic contact dermatitis, a response driven primarily by T helper type 2 (Th2) cells. […] In this model, an allergic dermatitis response is obtained by sensitizing mice to TDI and subsequently challenging them with antigen by topical administration onto the ears. A quantitative assessment of anti-inflammatory and anti-allergic effects of topically or orally administered test compounds is possible by measuring the resulting ear swelling.
Female BALB/c-mice were obtained from Charles River (Sulzfeld, Germany) at age 8 weeks. All animals were housed in groups of eight per cage at 22° C. with a 12 h light/dark-cycle. Water and a standard diet (Altromin, Lage/Lippe, Germany) were available ad libitum. All animals were acclimatized for one week before experimental procedures were commenced.
Experimental procedures for BALB/c mice housing, TDI sensitization and challenge, and measurement of ear thickness were performed as previously described (Baumer et al., J Pharm Pharmacol. 55:1107-1114 (2003)) with the following modifications. For active sensitization, 100 μL of 5% (w/v) TDI was administered to the shaved and stripped abdominal epidermis on day one, and for the next three consecutive days, 50 μL of 5% (w/v) TDI was applied. The allergic reaction was boosted 21 days later by application of 50 μL of 0.5% (w/v) TDI. For the examination of test compound effects, the left ears were used for the TDI challenge (20 μL of 0.5% in acetone) and ear thickness measured 3 h before and 24 h after challenge.
Administration time: to determine optimal time for administration treatment groups were treated orally by gavage with 100 mg/kg of compound 1a (suspended in 0.5% tylose, 10 mL/kg) 1, 4 or 16 h before topical TDI challenge. One group was treated with 100 mg/kg miltefosine orally, 16 h before challenge (based on available data for optimal administration time for miltefosine) and vehicle treated mice received tylose (10 mL/kg) orally, 4 h before challenge.
Comparison with dexamethasone: one group of mice was treated orally with compound 1a at 100 mg/kg suspended in 0.5% tylose, 4 h before topical TDI challenge. Vehicle treated mice received 0.5% tylose orally 4 h before challenge. As a positive control, dexamethasone was administered in saline solution at 1 mg/kg or 3 mg/kg, 2 h and 30 min before challenge and 1 h after challenge. The dose and dosing scheme for dexamethasone was based on previous experience showing a maximal effect in this model.
[…] The solution was applied, 2 h before topical TDI challenge by administration of 10 μl onto each of the inner and outer surfaces of the left ears. A vehicle group (n=5) was treated with propyleneglycol. As a positive control, diflorasone diacetate was administered at 0.01% (low dose) and 0.05% (high dose) in 20 μl acetone, 2 h before challenge. A basal control group was left untreated.
Mean and standard error of the mean (SEM) were calculated from individual ear edema values. Statistical evaluation was a one-way analysis of variance (ANOVA) (if the test for normal distribution was passed) or the Kruskal-Wallis one-way ANOVA on Ranks (if the normal distribution test failed). Both were followed by a post-hoc test (Dunnett's method or Dunn's test, respectively). A p<0.05 was considered to be significant.

Several values for one entry are separate records, joined by “and”; a condition that tells them apart may be missing. Identical values can stand only once. Like-named read-outs stand apart in the source and are kept apart here. Marks after values point to notes of the source that are not given here.

With `CCCCCCCCCCCCCC[N+](C)(C)CC(=O)N(C)C[C@H](O)[C@@H](O)[C@H](O)[C@H](O)CO` [Compound 1a, N-(2-(Dimethyl(tetradecyl)ammonio)acetyl)-N-methyl-D-glucamine chloride], the “Inhibition of mouse ear swelling” value in the data set with DTH response in mice (25 mg/kg orally twice daily) is 43%; with DTH response in mice (100 mg/kg orally twice daily) it was 50%; in data set [1] (administration time study, 100 mg/kg oral, 1 h before TDI challenge) it was 43.5* %; in data set [1] (administration time study, 100 mg/kg oral, 4 h before TDI challenge), 63% and 62.9*** %; in data set [1] (administration time study, 100 mg/kg oral, 16 h before TDI challenge) it was 43.5^§ %; in data set [1] (comparison with dexamethasone, 100 mg/kg oral, 4 h before challenge), 32%. Further, the “Inhibition of mouse ear swelling” value is 68% and 67.7*** % in data set [1] (topical, 2% solution in propyleneglycol, 2 h before challenge); 83% and 82.2*** % in data set [1] (topical, 6% solution in propyleneglycol, 2 h before challenge). Also, the “inhibition relative to that of the high dose of dexamethasone” value with DTH response in mice (25 or 100 mg/kg orally twice daily vs dexamethasone 1 mg/kg) is on record as “up to 94%”. Moreover, the toxicity entry in data set [1] (100 mg/kg oral) is listed as “no toxicity”. Further, the “inhibition relative to the highest dose of dexamethasone” value in data set [1] (100 mg/kg oral vs dexamethasone 3 mg/kg) is recorded as 37%.
